Data: patent US10201546B2, “Quinolinyl modulators of RORγt” (Janssen Pharmaceutica NV, priority 2013, dated 2019)
pKd: −log10 of the molar value.

What was measured:
[1] = target: human RORγt ligand binding domain (RORγt LBD) (Homo sapiens (Human), UniProt P51449); experiment: RORγt ThermoFluor assay (thermal shift, binding affinity Kd); settings: read-out: ThermoFluor ® Assay, Kd
[2] = target: human RORγt LBD fused to the DNA binding domain of the GAL4 protein (Homo sapiens (Human), UniProt P51449); experiment: RORγt (LBD) reporter assay in HEK293T cells; format: cell-based; parameters: RORγt (LBD) Reporter Assay, % inhibition: dose or concentration left out as unconfirmed; settings: for inhibition at 6 µM: HEK-293T, read-out: RORγt (LBD) Reporter Assay, % inhibition @ 6 μM, @ 6 μM
Chain of human RORγt LBD fused to the DNA binding domain of the GAL4 protein (P51449 258-518): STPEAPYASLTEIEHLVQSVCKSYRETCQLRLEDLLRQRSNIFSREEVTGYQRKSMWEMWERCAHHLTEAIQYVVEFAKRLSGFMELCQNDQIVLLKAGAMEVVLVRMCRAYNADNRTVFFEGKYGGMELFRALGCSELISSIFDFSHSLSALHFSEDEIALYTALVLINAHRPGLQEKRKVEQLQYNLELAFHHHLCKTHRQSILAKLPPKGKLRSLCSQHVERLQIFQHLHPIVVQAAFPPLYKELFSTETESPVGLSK

Chain of human RORγt ligand binding domain (RORγt LBD) (P51449 other isoform, or with tags, fused parts or gaps): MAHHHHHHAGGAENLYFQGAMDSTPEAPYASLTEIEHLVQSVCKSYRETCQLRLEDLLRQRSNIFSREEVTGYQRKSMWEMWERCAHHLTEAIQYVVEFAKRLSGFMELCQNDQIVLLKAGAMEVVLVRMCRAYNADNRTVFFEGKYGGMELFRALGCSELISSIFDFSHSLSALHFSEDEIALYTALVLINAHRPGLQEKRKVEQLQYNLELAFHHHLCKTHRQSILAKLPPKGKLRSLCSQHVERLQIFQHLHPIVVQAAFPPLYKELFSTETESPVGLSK

Structure (SMILES) | RORγt (LBD) Reporter Assay, % inhibition @ 6 μM [2] [%] | inhibition at 6 µM [2] [%] | also measured
COc1nc2ccc(C(O)(c3ccc(C(F)(F)F)nc3)c3cncn3C)cc2c(C#N)c1CN1CCC(C(F)(F)F)CC1 (single isomer, unassigned) [Example 191c, 6-(Hydroxy(1-methyl-1H-imidazol-5-yl)(6-(trifluoromethyl)pyridin-3-yl)methyl)-2-methoxy-3-((4-(trifluoromethyl)piperidin-1-yl)methyl)quinoline-4-carbonitrile] | – | – | pKd [1]: 8.51
COc1nc2ccc(C(O)(c3ccc(C)nc3C)c3cnnn3C)cc2c(Cl)c1OC1CCOCC1 (single isomer, unassigned) [Example 69b, [4-Chloro-2-methoxy-3-(tetrahydro-2H-pyran-4-yloxy)quinolin-6-yl](2,6-dimethylpyridin-3-yl)(1-methyl-1H-1,2,3-triazol-5-yl)methanol] | 37 | – | –
COc1nc2ccc(C(O)(c3ccc(C)nc3C)c3cnnn3C)cc2c(Cl)c1CC1CCC(F)(F)CC1 (single isomer, unassigned) [Example 1b, (4-Chloro-3-((4,4-difluorocyclohexyl)methyl)-2-methoxyquinolin-6-yl)(2,6-dimethylpyridin-3-yl)(1-methyl-1H-1,2,3-triazol-5-yl)methanol] | – | 78 | –
COc1nc2ccc(C(O)(c3ccc(C)nc3C)c3cnnn3C)cc2c(Cl)c1CC(C)C (single isomer, unassigned) [Example 133c, (4-Chloro-3-isobutyl-2-methoxyquinolin-6-yl)(2,6-dimethylpyridin-3-yl)(1-methyl-1H-1,2,3-triazol-5-yl)methanol] | – | – | RORγt (LBD) Reporter Assay, % inhibition [2]: 98%
COc1nc2ccc(C(O)(c3ccc(C)nc3C)c3cnnn3C)cc2c(Cl)c1C1CCCC1 (single isomer, unassigned) [Example 136c, (4-Chloro-3-cyclopentyl-2-methoxyquinolin-6-yl)(2,6-dimethylpyridin-3-yl)(1-methyl-1H-1,2,3-triazol-5-yl)methanol] | – | – | RORγt (LBD) Reporter Assay, % inhibition [2]: 98%
COc1nc2ccc(C(O)(c3ccc(C)nc3C)c3cnnn3C)cc2c(Cl)c1CN1CCC(F)(F)CC1 (stereo not shown) [Example 107a, (4-Chloro-3-((4,4-difluoropiperidin-1-yl)methyl)-2-methoxyquinolin-6-yl)(2,6-dimethylpyridin-3-yl)(1-methyl-1H-1,2,3-triazol-5-yl)methanol] | – | 54 | –
COc1nc2ccc(C(O)(c3ccc(C)nc3C)c3cnnn3C)cc2c(Cl)c1CN1CCC(C(F)(F)F)CC1 (single isomer, unassigned) [Example 103b, (4-Chloro-2-methoxy-3-((4-(trifluoromethyl)piperidin-1-yl)methyl)quinolin-6-yl)(2,6-dimethylpyridin-3-yl)(1-methyl-1H-1,2,3-triazol-5-yl)methanol] | – | 90 | –
COc1nc2ccc(C(O)(c3ccc(C)nc3C)c3cnnn3C)cc2c(Cl)c1CN1CCC(F)CC1 (single isomer, unassigned) [Example 108c, (4-Chloro-3-((4-fluoropiperidin-1-yl)methyl)-2-methoxyquinolin-6-yl)(2,6-dimethylpyridin-3-yl)(1-methyl-1H-1,2,3-triazol-5-yl)methanol] | 14 | – | –
COc1nc2ccc(C(O)(c3ccc(C)nc3C)c3cnnn3C)cc2c(Cl)c1CN1CCC(F)CC1 (single isomer, unassigned) [Example 108b, (4-Chloro-3-((4-fluoropiperidin-1-yl)methyl)-2-methoxyquinolin-6-yl)(2,6-dimethylpyridin-3-yl)(1-methyl-1H-1,2,3-triazol-5-yl)methanol] | 6 | – | –
COc1nc2ccc(C(O)(c3ccc(C)nc3C)c3cnnn3C)cc2c(Cl)c1CN1CCC(F)(F)CC1 (single isomer, unassigned) [Example 107b, (4-Chloro-3-((4,4-difluoropiperidin-1-yl)methyl)-2-methoxyquinolin-6-yl)(2,6-dimethylpyridin-3-yl)(1-methyl-1H-1,2,3-triazol-5-yl)methanol] | – | 38 | –
COc1nc2ccc(C(O)(c3ccc(C)nc3C)c3cnnn3C)cc2c(Cl)c1CC(C)C (single isomer, unassigned) [Example 133b, (4-Chloro-3-isobutyl-2-methoxyquinolin-6-yl)(2,6-dimethylpyridin-3-yl)(1-methyl-1H-1,2,3-triazol-5-yl)methanol] | – | – | RORγt (LBD) Reporter Assay, % inhibition [2]: 90%
COc1nc2ccc(C(O)(c3ccc(C)nc3C)c3cnnn3C)cc2c(Cl)c1CN1CCC(n2cccn2)CC1 (single isomer, unassigned) [Example 105c, (3-((4-(1H-Pyrazol-1-yl)piperidin-1-yl)methyl)-4-chloro-2-methoxyquinolin-6-yl)(2,6-dimethylpyridin-3-yl)(1-methyl-1H-1,2,3-triazol-5-yl)methanol] | 87 | – | –

Continued, in another order:

RORγt (LBD) Reporter Assay, % inhibition @ 6 μM [2] [%] | inhibition at 6 µM [2] [%] | Structure (SMILES) | also measured
87 | – | COc1nc2ccc(C(O)(c3ccc(C)nc3C)c3cnnn3C)cc2c(Cl)c1OCC1CC1 (single isomer, unassigned) [Example 68c, [4-Chloro-3-(cyclopropylmethoxy)-2-methoxyquinolin-6-yl](2,6-dimethylpyridin-3-yl)(1-methyl-1H-1,2,3-triazol-5-yl)methanol] | –
– | 93 | COc1nc2ccc(C(O)(c3ccc(C)nc3C)c3cnnn3C)cc2c(Cl)c1C (stereo not shown) [Example 12a, (4-Chloro-2-methoxy-3-methylquinolin-6-yl)(2,6-dimethylpyridin-3-yl)(1-methyl-1H-1,2,3-triazol-5-yl)methanol] | –
– | 85 | COc1nc2ccc(C(O)(c3ccc(C)nc3C)c3cnnn3C)cc2c(Cl)c1OCC1CC1(F)F (stereo not shown) [Example 72a, {4-Chloro-3-[(2,2-difluorocyclopropyl)methoxy]-2-methoxyquinolin-6-yl}(2,6-dimethylpyridin-3-yl)(1-methyl-1H-1,2,3-triazol-5-yl)methanol] | –
96 | – | COc1nc2ccc(C(O)(c3ccc(C(F)(F)F)nc3)c3cncn3C)cc2c(Cl)c1CN1CCC(C(F)(F)F)CC1 (single isomer, unassigned) [Example 112c, (4-Chloro-2-methoxy-3-((4-(trifluoromethyl)piperidin-1-yl)methyl)quinolin-6-yl)(1-methyl-1H-imidazol-5-yl)(6-(trifluoromethyl)pyridin-3-yl)methanol] | –
– | -112 | COc1nc2ccc(C(O)(c3ccc(C)nc3C)c3cnnn3C)cc2c(Cl)c1OCc1ncccn1 (stereo not shown) [Example 66a, [4-Chloro-2-methoxy-3-(pyrimidin-2-ylmethoxy)quinolin-6-yl](2,6-dimethylpyridin-3-yl)(1-methyl-1H-1,2,3-triazol-5-yl)methanol] | –
– | 60 | COc1nc2ccc(C(O)(c3ccc(C)nc3C)c3cnnn3C)cc2c(Cl)c1CN1CC(C(F)(F)F)C1 (single isomer, unassigned) [Example 114b, (4-Chloro-2-methoxy-3-((3-(trifluoromethyl)azetidin-1-yl)methyl)quinolin-6-yl)(2,6-dimethylpyridin-3-yl)(1-methyl-1H-1,2,3-triazol-5-yl)methanol] | –
– | 97 | COc1nc2ccc(C(O)(c3ccc(C(F)(F)F)nc3)c3cncn3C)cc2c(Cl)c1CN1CCC(C(F)(F)F)CC1 (single isomer, unassigned) [Example 112b, (4-Chloro-2-methoxy-3-((4-(trifluoromethyl)piperidin-1-yl)methyl)quinolin-6-yl)(1-methyl-1H-imidazol-5-yl)(6-(trifluoromethyl)pyridin-3-yl)methanol] | –
93 | – | COc1nc2ccc(C(O)(c3ccc(C)nc3C)c3cnnn3C)cc2c(Cl)c1C (single isomer, unassigned) [Example 12c, (4-Chloro-2-methoxy-3-methylquinolin-6-yl)(2,6-dimethylpyridin-3-yl)(1-methyl-1H-1,2,3-triazol-5-yl)methanol] | –
30 | – | COCCOc1c(OC)nc2ccc(C(O)(c3ccc(C(F)(F)F)nc3)c3cncn3C)cc2c1Cl (single isomer, unassigned) [Example 79b, [4-Chloro-2-methoxy-3-(2-methoxyethoxy)quinolin-6-yl](1-methyl-1H-imidazol-5-yl)[6-(trifluoromethyl)pyridin-3-yl]methanol] | –
−2.5 | – | COCCOc1c(OC)nc2ccc(C(O)(c3ccc(C(F)(F)F)nc3)c3cncn3C)cc2c1Cl (single isomer, unassigned) [Example 79c, [4-Chloro-2-methoxy-3-(2-methoxyethoxy)quinolin-6-yl](1-methyl-1H-imidazol-5-yl)[6-(trifluoromethyl)pyridin-3-yl]methanol] | –
– | -129 | COc1nc2ccc(C(O)(c3ccc(C)nc3C)c3cnnn3C)cc2c(Cl)c1OCc1ncccn1 (single isomer, unassigned) [Example 66b, [4-Chloro-2-methoxy-3-(pyrimidin-2-ylmethoxy)quinolin-6-yl](2,6-dimethylpyridin-3-yl)(1-methyl-1H-1,2,3-triazol-5-yl)methanol] | –
72 | – | COc1nc2ccc(C(O)(c3ccc(C)nc3C)c3cnnn3C)cc2c(Cl)c1CN1CC(C(F)(F)F)C1 (single isomer, unassigned) [Example 114c, (4-Chloro-2-methoxy-3-((3-(trifluoromethyl)azetidin-1-yl)methyl)quinolin-6-yl)(2,6-dimethylpyridin-3-yl)(1-methyl-1H-1,2,3-triazol-5-yl)methanol] | –
−80 | – | COc1nc2ccc(C(O)(c3ccc(C)nc3C)c3cnnn3C)cc2c(Cl)c1OCc1nccs1 (single isomer, unassigned) [Example 73c, [4-Chloro-2-methoxy-3-(1,3-thiazol-2-ylmethoxy)quinolin-6-yl](2,6-dimethylpyridin-3-yl)(1-methyl-1H-1,2,3-triazol-5-yl)methanol] | –
